The text below walks through data of patent US8859491B2 (priority 2011, dated 2014).

Usually IC50 stands for the concentration that gives 50% inhibition. Read a high IC50 as a need for much substance. By EC50 is commonly meant the concentration that produces a half-maximal response. Higher therefore signals weaker potency.

Non-standard residues stand in square brackets, D forms with d. No end group written: not given here. *: point of attachment. β‑estradiol 3‑ether = C[C@]12CC[C@@H]3c4ccc(O*)cc4CC[C@H]3[C@@H]1CC[C@@H]2O; Aib = CC(C)(N)C(=O)O

Assay [1] can be described thus: Example 17: DIO mice, 40 μg/kg sc daily for one week. The assay is classed as in vivo. As to conditions: between days 0 and 7. As to the method:
Diet-induced obesity (DIO) mice (N=8, average initial body weight=65 g) were subcutaneously injected once per day for one week with vehicle or 40 μg/kg one of the following:
Body weight was measured after 7 days and the change in body weight and the fat mass were determined (FIG. 6a-b). […] The analysis of fat mass (FIG. 6b) was relatively constant with total loss in body weight.

Assay [2] concerns the target T1, GLP-1 receptor (Homo sapiens, UniProt P43220).
T1 construct: expressed in transfected cells; host or cells: HEK293
In words: GLP-1 Binding, [I125]-GLP-1 SPA with receptor membrane extracts.

For assay [3], the target named is T1, GLP-1 receptor. The assay is described as follows: GLP-1 Activity (cAMP induction), CRE-luciferase reporter in HEK293 cells. Type of assay: cell-based. The procedure:
(§1) Luminescence was measured after cell lysis and incubation with luciferin.
as §1, §1

A short description of assay [4]: Example 20: DIO mice, sc daily. As to conditions: 7 days. Type of assay: in vivo. The procedure:
Diet induced obesity mice (DIO) (N=8, average body weight 61 g) were administered subcutaneous injections once per day for one or two weeks with vehicle or 40, 400, 1200, or 4000 μg/kg of one of the following: […]

Assay [5] can be described thus: Example 19: mice, sc daily for one week. The assay is classed as in vivo. As to conditions: between days 0 and 7. The procedure:
Mice (N=8, average body weight 55 g) were administered subcutaneous injections once per day for one week with vehicle or one of the following:
Body weight was measured after 7 days and the change in body weight was determined (FIG. 8a). There was little apparent difference in body weight lowering at these doses for the peptides with and without the estrogen.

A short description of assay [6]: Administration of GLP-1 conjugates to ovariectomized mice (FIGS. 13, 14). Type of assay: in vivo.
Assay [7] is described as follows: Example 30: DIO wild type, ERβ KO and ERα KO mice, 400 μg/kg sc daily for two weeks. Type of assay: in vivo.
Protocol: Diet-induced obesity wild type mice, estrogen receptor beta knock-out (ERβ KO) mice, and estrogen receptor alpha knock-out (ERα KO) mice were administered subcutaneous injections once per day for two weeks with vehicle or 400 μg/kg of one of the following:
A short description of assay [8]: Example 27: DIO mice, sc daily for two weeks. Type of assay: in vivo. As to the method: Diet induced obesity mice were administered subcutaneous injections once per day for two weeks with vehicle or 40 or 400 μg/kg of one of the following: […]
Assay [9] is described as follows: Example 25: ovariectomized C57BI/6 mice, 4000 μg/kg sc daily for 7 days. Type of assay: in vivo.
A short description of assay [10]: Administration of GLP-1 conjugates to mice, model not stated (FIGS. 15, 19). The conditions noted are these: vs GLP-1 agonist alone or GLP-1 agonist/Estrogen(3-ester) conjugate. The assay is classed as in vivo.
Assay [11] can be described thus: Example 29: DIO mice, 400 μg/kg sc daily for seven days. Type of assay: in vivo.
Assay [12] deals with T1, GLP-1 receptor. The assay is described as follows: cAMP induction, firefly luciferase reporter assay in HEK293 cells, GLP-1 receptor. The assay is classed as cell-based. As to conditions: GLP-1 receptor versus glucagon receptor. The procedure:
The ability of each peptide to induce cAMP was measured in a firefly luciferase-based reporter assay. […] HEK293 cells co-transfected with the receptor and luciferase gene linked to a cAMP responsive element were employed for the bioassay.
At the end of the incubation, 100 μL of LucLite luminescence substrate reagent (Perkin Elmer, Wellesley, Mass.) were added to each well. […] All EC50s and IC50s are reported in the following examples in nM, unless indicated otherwise.

Assay [13] can be described thus: Example 21: mice on diabetic diet, sc daily for one week. Type of assay: in vivo. The conditions noted are these: between days 0 and 7.
The next assay addresses T2, glucocorticoid receptor (Homo sapiens, UniProt P04150).
T2 construct: two clones of HeLa cells (ATCC #CCL-2) transfected with murine mammary tumor virus long terminal repeat-driven firefly luciferase; host or cells: HeLa
T2 sequence (P04150 1-777): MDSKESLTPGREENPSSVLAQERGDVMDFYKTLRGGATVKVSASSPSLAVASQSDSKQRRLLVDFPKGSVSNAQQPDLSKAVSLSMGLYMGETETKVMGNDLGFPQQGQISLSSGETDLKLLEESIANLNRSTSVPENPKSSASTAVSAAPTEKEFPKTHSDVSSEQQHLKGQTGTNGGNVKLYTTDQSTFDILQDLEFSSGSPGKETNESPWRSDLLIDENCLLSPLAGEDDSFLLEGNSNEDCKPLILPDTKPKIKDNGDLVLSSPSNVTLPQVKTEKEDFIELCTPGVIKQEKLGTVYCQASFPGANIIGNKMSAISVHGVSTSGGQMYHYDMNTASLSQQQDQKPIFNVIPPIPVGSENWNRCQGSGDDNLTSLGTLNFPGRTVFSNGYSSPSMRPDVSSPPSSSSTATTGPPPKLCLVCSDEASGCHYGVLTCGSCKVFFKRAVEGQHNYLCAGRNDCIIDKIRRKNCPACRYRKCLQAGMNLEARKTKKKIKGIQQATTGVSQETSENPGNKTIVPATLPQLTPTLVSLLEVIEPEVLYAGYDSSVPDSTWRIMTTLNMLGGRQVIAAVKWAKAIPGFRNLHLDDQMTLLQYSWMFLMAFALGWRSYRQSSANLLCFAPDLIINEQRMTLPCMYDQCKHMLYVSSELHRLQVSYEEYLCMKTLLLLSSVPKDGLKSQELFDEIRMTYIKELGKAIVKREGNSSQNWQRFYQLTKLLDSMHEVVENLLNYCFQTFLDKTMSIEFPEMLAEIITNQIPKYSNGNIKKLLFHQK
The assay is described as follows: Glucocorticoid receptor luciferase reporter gene assay in HeLa cell clones (MMTV-LTR luciferase). The assay is classed as cell-based. As to conditions: Example 37; two HeLa reporter clones; compared with unconjugated dexamethasone. As to the method: The activities of the peptide conjugates in Examples 32 and 33 at the glucocorticoid receptor were tested in the luciferase reporter gene assay using two clones of HeLa cells (ATCC #CCL-2) transfected with murine mammary tumor virus long terminal repeat-driven firefly luciferase.
For orientation: Reporter assays use an easily measured gene product as a stand-in for the process of interest.

The nature of assay [14]: Example 16: mice on diabetic diet for 9 months, sc dosing. The assay is classed as in vivo. The conditions noted are these: low daily dose, 7 days.

T1 sequence (P43220 24-463, species assumed): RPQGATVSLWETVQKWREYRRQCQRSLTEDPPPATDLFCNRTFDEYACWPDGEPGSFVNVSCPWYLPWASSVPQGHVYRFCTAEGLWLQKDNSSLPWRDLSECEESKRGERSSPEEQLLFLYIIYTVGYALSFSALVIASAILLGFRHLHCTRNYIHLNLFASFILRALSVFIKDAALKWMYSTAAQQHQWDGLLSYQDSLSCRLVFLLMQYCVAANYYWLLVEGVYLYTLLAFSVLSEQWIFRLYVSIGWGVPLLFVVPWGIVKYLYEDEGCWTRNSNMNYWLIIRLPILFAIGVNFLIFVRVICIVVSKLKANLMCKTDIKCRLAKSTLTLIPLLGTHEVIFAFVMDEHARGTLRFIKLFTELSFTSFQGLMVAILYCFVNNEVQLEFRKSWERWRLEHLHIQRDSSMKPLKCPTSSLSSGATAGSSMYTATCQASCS

Take “GLP-1(Aib^2E^16Cex K^40)/Estrogen(17-ester): E16 GLP-1 analog conjugated to estrogen by 17-ester (H[Aib]EGTFTSDVSSYLEEQAAKEFIAWLVKGGPSSGAPPPSK-NH2; not fully specified (residue 40))”: the “change in blood glucose” value in [1] is listed as “greatest change in blood glucose”.
Regarding `CC[C@H](C)[C@H](NC(=O)[C@H](Cc1ccccc1)NC(=O)[C@H](CCC(=O)O)NC(=O)[C@H](CCCCN)NC(=O)[C@H](C)NC(=O)[C@H](C)NC(=O)[C@H](CCC(N)=O)NC(=O)[C@H](CCC(=O)O)NC(=O)[C@H](CCC(=O)O)NC(=O)[C@H](CC(C)C)NC(=O)[C@H](Cc1ccc(O)cc1)NC(=O)[C@H](CO)NC(=O)[C@H](CO)NC(=O)[C@@H](NC(=O)[C@H](CC(=O)O)NC(=O)[C@H](CO)NC(=O)[C@@H](NC(=O)[C@H](Cc1ccccc1)NC(=O)[C@@H](NC(=O)CNC(=O)[C@H](CCC(=O)O)NC(=O)C(C)(C)NC(=O)[C@@H](N)Cc1c[nH]cn1)[C@@H](C)O)[C@@H](C)O)C(C)C)C(=O)N[C@@H](C)C(=O)N[C@@H](Cc1c[nH]c2ccccc12)C(=O)N[C@@H](CC(C)C)C(=O)N[C@H](C(=O)N[C@@H](CCCCN)C(=O)NCC(=O)NCC(=O)N1CCC[C@H]1C(=O)N[C@@H](CO)C(=O)N[C@@H](CO)C(=O)NCC(=O)N[C@@H](C)C(=O)N1CCC[C@H]1C(=O)N1CCC[C@H]1C(=O)N1CCC[C@H]1C(=O)N[C@@H](CO)C(=O)N[C@@H](CCCCNC(=O)COc1ccc2c(c1)CC[C@@H]1[C@@H]2CC[C@]2(C)[C@@H](O)CC[C@@H]12)C(N)=O)C(C)C` [GLP-1/Estrogen(3-ether)], the IC50 at GLP-1 receptor [2] was determined as 0.717 ± 0.135 nM. This compound came in with an EC50 at GLP-1 receptor [3] of 0.012 ± 0.003 nM.
Take “GLP-1(Aib^2E^16Cex K^40)/Estrogen(3-ester): E16 GLP-1 analog conjugated to estrogen by 3-ester (H[Aib]EGTFTSDVSSYLEEQAAKEFIAWLVKGGPSSGAPPPSK-NH2; not fully specified (residue 40))”: the cumulative food intake entry in [4] is on record as “consumed significantly less food than mice that were administered GLP-1 alone”. Further, the “change in blood glucose levels” value in [5] is reported as “greatest change in blood glucose levels”.
Consider “GLP-1 agonist/Estrogen(3-ether): active, estrogen-stable GLP-1 agonist/Estrogen(3-ether) conjugate (H[Aib]EGTFTSDVSSYLEEQAAKEFIAWLVKGGPSSGAPPPSK(β‑estradiol 3‑ether)-NH2)”, for which the fat mass entry in assay [6] (FIG. 13b) and in assay [9] (4000 μg/kg) was “decrease in fat mass” in each case. Besides, the blood glucose levels result in [6] (FIG. 13d) is on record as “decrease in blood glucose levels greater than vehicle”. In addition, the “change in body weight” value in [6] (vs GLP-1 agonist alone and the inactive d-amino acid conjugates, FIG. 13a) is given as “greater decrease”; in assay [8] (40 or 400 μg/kg, after 15 days) it was “significantly greater decrease in body weight”; in [9] (4000 μg/kg, after 7 days), “greater decrease in body weight”; in [10] (FIG. 15a), “significantly greater decrease”; in assay [11] (after 7 days), “greatest decrease in body weight”. Further, the food intake entry in [6] (vs GLP-1 agonist alone and the inactive d-amino acid conjugates, FIG. 13c) is “consumed less food”. Moreover, the “decrease in body weight” value in assay [7] (ERα KO mice, two weeks) is about 20%; in assay [7] (ERβ KO mice, two weeks), about 15%; in [7] (wild type DIO mice, two week period) it was about 10%. In addition, the cumulative food intake entry is “consumed the least amount of food” in assay [7] (knock-out mice), “consumed significantly less food” in [8] (15 days), “consumed less food” in assay [9] (7 days) and “significantly less food” in assay [10] (FIG. 15b). Further, the “change in blood glucose” value in assay [9] (4000 μg/kg) is reported as “decrease in blood glucose levels greater than vehicle”; in assay [11] (over 7 days), “decrease in blood glucose levels over 7 days, with the decrease greater in mice that were administered the conjugate”.
With “SEQ ID NO: 22: glucagon analog generated by substituting the native glutamine at position 3 with glutamic acid”, the “selectivity for the GLP-1 receptor” value in the assay with GLP-1 receptor [12] was “approximately a tenfold selectivity”.
Take “SEQ ID NO: 1659: GLP-1 based glucagon superfamily peptide conjugated to estradiol or estrone through a hydrolyzable linkage ([dA][Aib][dE]G[dT][dF][dT][dS][dD][dV][dS][dS][dY][dL][dE]G[dQ][dA][dA][dK][dE][dA][dI][dA][dW][dL][dV][dK]GG[dP][dS][dS]G[dA][dP][dP][dP][dS]K-NH2; not fully specified (residue 40))”: the “change in blood glucose levels” value in [13] is “greater change in blood glucose levels”.
For the compound [Aib2, E16]GLP-1-CEX-Lys40(NHCO—O-DEX), at glucocorticoid receptor, the “agonist activity at the glucocorticoid receptor” value is “retained the greatest amount of activity at the glucocorticoid receptor”.
Turning to “GLP-1(Aib^2E^16C^24(PEG-40 kDa)Cex K^40): GLP-1 analog PEGylated (40 kDa) at Cys24 (H[Aib]EGTFTSDVSSYLEEQAAKEFIC(PEG 40 kDa thioether)WLVKGGPSSGAPPPSK-NH2)”, the cumulative food intake entry in assay [14] was “consumed the least amount of food”.
